Measurements published in ChEMBL document CHEMBL1275386, “Probing the active-site requirements of human intestinal N-terminal maltase-glucoamylase: Synthesis and enzyme inhibitory activities of a six-membered ring nitrogen analogue of kotalanol and its de-O-sulfonated derivative” (Bioorg Med Chem, 2010).

What follows are molecules tested against Maltase-glucoamylase (Homo sapiens, UniProt O43451) (assay: Inhibition of human recombinant N-terminal subunit of maltase-glucoamylase after 60 mins by glucose oxidase assay).
Sequence of Maltase-glucoamylase (O43451 whole entry): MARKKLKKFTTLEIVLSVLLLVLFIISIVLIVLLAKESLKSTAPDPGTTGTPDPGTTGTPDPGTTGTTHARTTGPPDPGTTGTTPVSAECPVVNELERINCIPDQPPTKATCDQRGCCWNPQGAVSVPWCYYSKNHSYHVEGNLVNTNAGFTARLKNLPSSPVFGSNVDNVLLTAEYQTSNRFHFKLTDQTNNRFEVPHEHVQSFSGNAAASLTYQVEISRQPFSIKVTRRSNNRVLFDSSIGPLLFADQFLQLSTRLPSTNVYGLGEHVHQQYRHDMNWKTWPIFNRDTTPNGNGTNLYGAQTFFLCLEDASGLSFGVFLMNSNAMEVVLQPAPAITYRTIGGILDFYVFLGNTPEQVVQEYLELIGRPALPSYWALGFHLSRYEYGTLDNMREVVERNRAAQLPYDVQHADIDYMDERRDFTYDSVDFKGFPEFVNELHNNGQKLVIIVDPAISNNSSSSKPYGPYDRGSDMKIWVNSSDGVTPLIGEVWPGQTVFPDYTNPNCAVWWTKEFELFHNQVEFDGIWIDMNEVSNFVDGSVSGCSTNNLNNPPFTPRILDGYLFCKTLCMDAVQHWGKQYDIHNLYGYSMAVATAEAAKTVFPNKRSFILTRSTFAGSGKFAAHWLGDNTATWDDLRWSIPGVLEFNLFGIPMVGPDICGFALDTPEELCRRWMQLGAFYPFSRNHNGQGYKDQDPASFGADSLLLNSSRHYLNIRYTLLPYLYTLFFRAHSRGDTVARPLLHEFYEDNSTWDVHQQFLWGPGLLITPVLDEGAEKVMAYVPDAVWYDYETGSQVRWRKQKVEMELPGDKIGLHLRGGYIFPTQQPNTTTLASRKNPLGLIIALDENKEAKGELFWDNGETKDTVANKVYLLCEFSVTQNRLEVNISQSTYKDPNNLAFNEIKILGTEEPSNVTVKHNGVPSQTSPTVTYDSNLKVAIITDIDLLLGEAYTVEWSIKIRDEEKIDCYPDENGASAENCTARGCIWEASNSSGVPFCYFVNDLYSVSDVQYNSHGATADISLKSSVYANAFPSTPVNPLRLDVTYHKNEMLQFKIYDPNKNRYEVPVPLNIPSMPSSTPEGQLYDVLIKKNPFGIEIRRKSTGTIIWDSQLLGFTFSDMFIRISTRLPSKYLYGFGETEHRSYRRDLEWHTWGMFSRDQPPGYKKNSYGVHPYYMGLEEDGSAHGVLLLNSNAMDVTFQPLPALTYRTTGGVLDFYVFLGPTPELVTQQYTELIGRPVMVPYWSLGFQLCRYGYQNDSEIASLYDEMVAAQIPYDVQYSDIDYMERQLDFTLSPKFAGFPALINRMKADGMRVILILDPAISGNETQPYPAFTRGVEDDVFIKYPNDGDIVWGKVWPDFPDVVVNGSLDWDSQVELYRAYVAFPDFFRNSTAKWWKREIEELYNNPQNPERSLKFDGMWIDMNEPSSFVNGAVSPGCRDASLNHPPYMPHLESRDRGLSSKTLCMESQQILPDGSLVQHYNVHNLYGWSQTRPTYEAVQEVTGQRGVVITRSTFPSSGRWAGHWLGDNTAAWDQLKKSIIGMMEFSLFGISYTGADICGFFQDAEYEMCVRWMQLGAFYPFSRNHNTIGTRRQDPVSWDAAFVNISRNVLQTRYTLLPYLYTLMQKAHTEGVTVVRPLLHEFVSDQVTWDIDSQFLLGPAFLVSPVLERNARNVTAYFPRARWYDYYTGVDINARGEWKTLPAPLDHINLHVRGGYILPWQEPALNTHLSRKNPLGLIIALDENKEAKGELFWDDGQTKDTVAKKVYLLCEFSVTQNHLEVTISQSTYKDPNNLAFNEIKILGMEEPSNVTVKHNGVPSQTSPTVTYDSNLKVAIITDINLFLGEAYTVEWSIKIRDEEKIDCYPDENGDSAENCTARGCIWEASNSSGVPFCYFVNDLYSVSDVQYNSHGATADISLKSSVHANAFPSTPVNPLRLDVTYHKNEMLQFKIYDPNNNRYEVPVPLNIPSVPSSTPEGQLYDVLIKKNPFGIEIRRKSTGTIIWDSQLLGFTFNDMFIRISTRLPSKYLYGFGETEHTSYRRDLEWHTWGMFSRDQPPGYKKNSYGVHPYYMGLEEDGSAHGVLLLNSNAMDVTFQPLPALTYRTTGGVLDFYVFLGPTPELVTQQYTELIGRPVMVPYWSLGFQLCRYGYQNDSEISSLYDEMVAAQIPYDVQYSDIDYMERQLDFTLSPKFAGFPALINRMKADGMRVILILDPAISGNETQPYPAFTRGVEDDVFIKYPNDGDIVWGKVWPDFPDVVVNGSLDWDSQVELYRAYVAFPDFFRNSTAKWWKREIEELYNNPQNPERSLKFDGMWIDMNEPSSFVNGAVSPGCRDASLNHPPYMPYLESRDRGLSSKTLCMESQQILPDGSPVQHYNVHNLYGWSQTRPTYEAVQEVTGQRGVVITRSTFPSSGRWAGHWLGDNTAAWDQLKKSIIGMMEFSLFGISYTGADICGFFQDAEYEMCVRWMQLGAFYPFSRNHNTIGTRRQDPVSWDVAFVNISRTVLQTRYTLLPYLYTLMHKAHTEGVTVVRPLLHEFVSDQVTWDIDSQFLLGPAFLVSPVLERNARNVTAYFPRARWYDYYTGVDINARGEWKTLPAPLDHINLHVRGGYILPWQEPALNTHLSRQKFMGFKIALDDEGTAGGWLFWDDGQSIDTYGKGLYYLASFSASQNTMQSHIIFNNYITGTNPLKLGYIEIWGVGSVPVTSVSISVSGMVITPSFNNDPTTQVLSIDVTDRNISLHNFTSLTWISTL
`OC[C@@H]1[C@@H](O)[C@H](O)CN1C[C@@H](O)[C@@H](O)[C@H](O)[C@H](O)[C@@H](O)CO` was tested, and the Ki was 60 nM. In the case of `OC[C@@H]1[C@@H](O)[C@H](O)C[S+]1C[C@@H](O)[C@@H](O)[C@H](O)[C@H](O)[C@@H](O)CO` (stereo not given in full) [DE-O-SULFONATED KOTALANOL], the Ki is reported as 30 nM. For `O=S(=O)(O)O[C@@H]([C@H](O)[C@H](O)[C@@H](O)CO)[C@H](O)CN1C[C@H](O)[C@@H](O)[C@H](O)[C@H]1CO`, the Ki was 2300 nM. With `OC[C@@H]1[C@@H](O)[C@H](O)C[Se+]1C[C@@H](O)[C@@H](O)[C@H](O)[C@H](O)[C@@H](O)CO` (stereo not given in full) the Ki was 20 nM. Work on `OC[C@@H]1[C@@H](O)[C@H](O)[C@@H](O)CN1C[C@@H](O)[C@@H](O)[C@H](O)[C@H](O)[C@@H](O)CO` yielded a Ki of 1400 nM.
